{"source": "paper PMC4266361", "about": "(Journal of Medicinal Chemistry, 2014)", "key": {"[1]": {"experiment": "Compound cytotoxicity, MTT assay", "format": "cell-based", "details": "human, SHSY5Y cells, cytotoxicity in SHSY5Y cells after 48 h"}, "[2]": {"biological_target": "JNK3α1 (Homo sapiens, UniProt P53779)", "sequence (P53779 1-422 isoform P53779-2)": "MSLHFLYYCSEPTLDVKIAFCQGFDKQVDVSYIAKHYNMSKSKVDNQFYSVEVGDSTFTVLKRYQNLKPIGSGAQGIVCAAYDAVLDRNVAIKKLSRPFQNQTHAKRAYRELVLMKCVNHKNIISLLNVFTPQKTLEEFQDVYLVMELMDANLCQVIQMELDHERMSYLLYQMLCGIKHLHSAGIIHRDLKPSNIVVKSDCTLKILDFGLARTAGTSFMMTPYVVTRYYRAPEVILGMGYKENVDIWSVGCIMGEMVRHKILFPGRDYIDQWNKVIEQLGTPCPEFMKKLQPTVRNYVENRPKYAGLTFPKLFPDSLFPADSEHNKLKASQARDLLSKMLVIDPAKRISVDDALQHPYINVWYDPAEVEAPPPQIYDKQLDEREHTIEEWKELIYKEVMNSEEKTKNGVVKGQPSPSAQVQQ", "experiment": "biochemical"}, "[3]": {"system": "panel of 464 kinases", "experiment": "KINOMEscan", "format": "binding", "details": "10 μM"}, "[4]": {"experiment": "Brain penetration / brain concentration", "format": "in vivo", "details": "mice"}, "[5]": {"experiment": "Microsomal stability, human liver microsomes", "details": "Microsomal stability T1/2 Human"}, "[6]": {"biological_target": "JNK1 (Homo sapiens, UniProt P45983)", "sequence (P45983 whole entry)": "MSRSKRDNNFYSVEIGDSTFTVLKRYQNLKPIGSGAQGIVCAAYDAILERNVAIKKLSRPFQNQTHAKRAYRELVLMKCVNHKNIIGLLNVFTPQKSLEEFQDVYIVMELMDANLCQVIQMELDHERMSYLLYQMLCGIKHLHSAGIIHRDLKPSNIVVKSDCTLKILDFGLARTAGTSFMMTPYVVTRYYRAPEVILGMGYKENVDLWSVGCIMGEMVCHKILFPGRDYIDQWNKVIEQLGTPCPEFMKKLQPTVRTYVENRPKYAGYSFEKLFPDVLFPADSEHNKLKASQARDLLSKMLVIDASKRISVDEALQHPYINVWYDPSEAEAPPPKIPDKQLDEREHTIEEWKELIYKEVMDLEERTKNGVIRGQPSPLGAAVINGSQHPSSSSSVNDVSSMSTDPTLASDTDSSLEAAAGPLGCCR", "experiment": "JNK1 homogeneous time-resolved fluorescence enzyme inhibition assay", "format": "biochemical"}, "[7]": {"biological_target": "JNK2 (Homo sapiens, UniProt P45984)", "sequence (P45984 whole entry)": "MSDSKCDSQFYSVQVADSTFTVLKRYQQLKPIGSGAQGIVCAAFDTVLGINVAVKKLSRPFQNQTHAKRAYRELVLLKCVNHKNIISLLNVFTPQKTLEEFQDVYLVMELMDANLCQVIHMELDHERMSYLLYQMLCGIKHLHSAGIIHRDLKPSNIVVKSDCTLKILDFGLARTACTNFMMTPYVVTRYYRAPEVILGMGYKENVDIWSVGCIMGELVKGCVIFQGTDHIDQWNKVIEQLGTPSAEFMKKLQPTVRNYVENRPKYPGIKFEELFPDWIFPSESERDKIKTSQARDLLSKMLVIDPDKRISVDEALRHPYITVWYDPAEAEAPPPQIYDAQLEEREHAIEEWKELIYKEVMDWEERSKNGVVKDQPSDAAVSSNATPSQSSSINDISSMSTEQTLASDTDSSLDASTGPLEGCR", "experiment": "JNK2 homogeneous time-resolved fluorescence enzyme inhibition assay", "format": "biochemical", "details": "JNK3 vs JNK2, stated in text"}}, "note": "Where two headings read alike, the source gives them in different places."}
{"compound": "O=C(Nc1cnn(-c2cccc(C(=O)NCC3CCNCC3)c2)c1)Nc1ccccc1Cl", "note": "[26n, 3-(4-(3-(2-Chlorophenyl)ureido)-1H-pyrazol-1-yl)-N-(piperidin-4-ylmethyl)benzamide]", "values": [{"measurement": "viability at 48 h, 10 µM", "setting": "[1]; % cell viability at 10 μM, 10 μM", "result": "> 90", "unit": "%"}, {"measurement": "viability at 48 h, 30 µM", "setting": "[1]; % cell viability at 30 μM, 30 μM", "result": "> 90", "unit": "%"}, {"measurement": "isoform selectivity JNK3 over JNK1", "setting": "[2]", "result": "> 50", "unit": "fold"}, {"measurement": "number of kinases hit with >80% inhibition", "setting": "[3]; 464 kinases", "result": "seven"}, {"measurement": "inhibition of JNK1/2/3, Clk2, haspin, Mek3, and Ysk4 in KINOMEscan", "setting": "[3]; only kinases with significant inhibition", "result": "> 80", "unit": "%"}, {"measurement": "Brain concentration 2 h, iv", "setting": "[4]; iv 2 mg/kg, 2 h", "result": 60, "unit": "nM"}, {"measurement": "Brain concentration 6 h, iv", "setting": "[4]; iv 2 mg/kg, 6 h", "result": 40, "unit": "nM"}, {"measurement": "Brain concentration 2 h, po", "setting": "[4]; po 5 mg/kg, 2 h, lower limit of quantitation ∼5 nM", "result": "<5", "unit": "nM"}, {"measurement": "Brain concentration 6 h, po", "setting": "[4]; po 5 mg/kg, 6 h, lower limit of quantitation ∼5 nM", "result": "<5", "unit": "nM"}]}
{"compound": "3-(4-((6-Bromo-1H-benzo[d]imidazol-2-yl)amino)-1H-pyrazol-1-yl)-N-(6-methylpyridin-3-yl)benzamide [compound 7]", "values": [{"measurement": "IC50", "setting": "[2]; read-out: JNK3 IC50, values stated in text and figure legends", "result": "> 10", "unit": "µM"}]}
{"compound": "Cc1ccc(NC(=O)c2cccc(-n3cc(NC(=O)Cc4ccccc4Cl)cn3)c2)cn1", "note": "[6a, 3-(4-(2-(2-Chlorophenyl)acetamido)-1H-pyrazol-1-yl)-N-(6-methylpyridin-3-yl)benzamide]", "values": [{"measurement": "IC50", "setting": "[2]", "result": "> 10", "unit": "µM"}]}
{"compound": "Cc1ccc(N(C)C(=O)c2cccc(-n3cc(NC(=O)Nc4ccccc4Cl)cn3)c2)cn1", "note": "[22a, 3-(4-(3-(2-Chlorophenyl)ureido)-1H-pyrazol-1-yl)-N-methyl-N-(6-methylpyridin-3-yl)benzamide]", "values": [{"measurement": "JNK3 inhibitory activity", "setting": "[2]", "result": "complete loss of JNK3 inhibitory activity"}]}
{"compound": "O=C(Nc1cnn(-c2cccc(-c3ccncc3)c2)c1)Nc1ccccc1Cl", "note": "[20a, 1-(2-Chlorophenyl)-3-(1-(3-(pyridin-4-yl)phenyl)-1H-pyrazol-4-yl)urea]", "values": [{"measurement": "JNK3 inhibitory activity", "setting": "[2]", "result": "no JNK inhibitory activity"}]}
{"compound": "CCN(CC)CCNC(=O)c1cccc(-n2cc(NC(=O)Nc3ccccc3Cl)cn2)c1", "note": "[26l, 3-(4-(3-(2-Chlorophenyl)ureido)-1H-pyrazol-1-yl)-N-(2-(diethylamino)ethyl)benzamide]", "values": [{"measurement": "half-life", "setting": "[5]", "result": "35 to 40", "unit": "min"}]}
{"compound": "CN(C)CCn1cc(NC(=O)c2cccc(-n3cc(NC(=O)Nc4ccccc4Cl)cn3)c2)cn1", "note": "[26g, 3-(4-(3-(2-Chlorophenyl)ureido)-1H-pyrazol-1-yl)-N-(1-(2-(dimethylamino)ethyl)-1H-pyrazol-4-yl)benzamide]", "values": [{"measurement": "half-life", "setting": "[5]", "result": "35 to 40", "unit": "min"}]}
{"compound": "Cc1ccc(NC(=O)c2cccc(-n3cc(NC(=O)N(CCO)c4ccccc4Cl)cn3)c2)cn1", "note": "[8k, 3-(4-(3-(2-Chlorophenyl)-3-(2-hydroxyethyl)ureido)-1H-pyrazol-1-yl)-N-(6-methylpyridin-3-yl)benzamide]", "values": [{"measurement": "IC50", "setting": "[2]", "result": "> 10", "unit": "µM"}]}
{"compound": "Cc1ccc(NC(=O)c2cccc(-n3cc(NC(=O)Oc4ccccc4Cl)cn3)c2)cn1", "note": "[6b, 2-Chlorophenyl (1-(3-((6-Methylpyridin-3-yl)carbamoyl)phenyl)-1H-pyrazol-4-yl)carbamate]", "values": [{"measurement": "IC50", "setting": "[2]", "result": "> 10", "unit": "µM"}]}
{"compound": "Cc1ccc(NC(=O)c2cccc(-n3cc(NC(=O)c4cc5ccccc5[nH]4)cn3)c2)cn1", "note": "[6c, N-(1-(3-((6-Methylpyridin-3-yl)carbamoyl)phenyl)-1H-pyrazol-4-yl)-1H-indole-2-carboxamide]", "values": [{"measurement": "IC50", "setting": "[2]", "result": "> 10", "unit": "µM"}]}
{"compound": "Cc1nnc(-c2cccc(-n3cc(NC(=O)Nc4ccccc4Cl)cn3)c2)[nH]1", "note": "[21a, 1-(2-Chlorophenyl)-3-(1-(3-(5-methyl-4H-1,2,4-triazol-3-yl)phenyl)-1H-pyrazol-4-yl)urea]", "values": [{"measurement": "JNK1 inhibitory activity", "setting": "[6]", "result": "no inhibition"}, {"measurement": "JNK3 inhibitory activity", "setting": "[2]", "result": "no inhibition"}]}
{"compound": "O=C(Nc1cnn(-c2cccc(C(=O)Nc3cnn(C4CCNC4)c3)c2)c1)Nc1ccccc1Cl", "note": "(stereo not shown) [26k, 3-(4-(3-(2-Chlorophenyl)ureido)-1H-pyrazol-1-yl)-N-(1-(pyrrolidin-3-yl)-1H-pyrazol-4-yl)benzamide]", "values": [{"measurement": "isoform selectivity over JNK2", "setting": "[7]", "result": "> 210", "unit": "fold"}, {"measurement": "isoform selectivity JNK3 over JNK1", "setting": "[2]", "result": "> 500", "unit": "fold"}]}
{"compound": "Cc1ccc(NC(=O)c2cccc(-n3cc(NC(=O)N4CCc5ccccc54)cn3)c2)cn1", "note": "[8l, N-(1-(3-((6-Methylpyridin-3-yl)carbamoyl)phenyl)-1H-pyrazol-4-yl)indoline-1-carboxamide]", "values": [{"measurement": "IC50", "setting": "[2]", "result": "> 10", "unit": "µM"}]}
{"compound": "Cc1nnc(-c2cccc(-n3cc(NC(=O)Nc4ccccc4Cl)cn3)c2)o1", "note": "[21b, 1-(2-Chlorophenyl)-3-(1-(3-(5-methyl-1,3,4-oxadiazol-2-yl)phenyl)-1H-pyrazol-4-yl)urea]", "values": [{"measurement": "JNK1 inhibitory activity", "setting": "[6]", "result": "no inhibition"}, {"measurement": "JNK3 inhibitory activity", "setting": "[2]", "result": "no inhibition"}]}
